We go through 17 molecules from EP2768830B1, “APOPTOSIS-INDUCING AGENTS FOR THE TREATMENT OF CANCER AND IMMUNE AND AUTOIMMUNE DISEASES” (AbbVie Inc., priority 2011, dated 2013).

Assay [1] addresses GST-Bcl-xL (Homo sapiens, UniProt Q07817). Conditions: read-out: TR-FRET binding Bcl-xL Ki. On the technique in general: In TR-FRET formats the signal depends on donor and acceptor labels being close together.
Assay [2] concerns mouse FL5.12 cells transfected with Bcl-XL. The experiment in a line: FL5.12 cellular assay (cell viability, CellTiter-Glo).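 Also: each EC50 determination derived from duplicate measurements.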 The format is cell-based. Conditions: FL5.12 cells transfected with Bcl-XL, IL-3-depleted, 3% FBS assay media, 24 hours, CellTiter-Glo, read-out: FL5.12 Bcl-xL, - IL3, EC 50.

Where two headings read alike, the source gives them in different places.

Sequence of GST-Bcl-xL (Q07817 whole entry): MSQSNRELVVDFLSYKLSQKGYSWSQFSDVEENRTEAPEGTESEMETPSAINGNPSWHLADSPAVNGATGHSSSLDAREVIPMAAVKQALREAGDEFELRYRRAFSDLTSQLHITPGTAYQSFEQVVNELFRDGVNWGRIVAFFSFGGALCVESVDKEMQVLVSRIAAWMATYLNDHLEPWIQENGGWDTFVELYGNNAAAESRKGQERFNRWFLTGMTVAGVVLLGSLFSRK

On to `N#Cc1c(-c2ccc(N3CCc4cccc(C(=O)Nc5nc6ccccc6s5)c4C3)nc2C(=O)O)cccc1N1CCCC1C12CC3CC(CC(C3)C1)C2` (stereo not shown) [Example 182, 6-[8-(1,3-benzothiazol-2-ylcarbamoyl)-3,4-dihydroisoquinolin-2(1H)-yl]-3-{2-cyano-3-[2-(tricyclo[3.3.1.1^3,7]dec-1-yl)pyrrolidin-1-yl]phenyl}pyridine-2-carboxylic acid], for which the Ki (as a rule, a measure of affinity in units of concentration, obtained from inhibition or displacement) in assay [1] came out at 0.2 nM. In assay [2] (Mus musculus), the EC50 amounted to 6 nM.

For the molecule `O=C(Nc1nc2ccccc2s1)c1cccc2c1CN(c1ccc(-c3cnn(CC4CCNCC4)c3)c(C(=O)O)n1)CC2` [Example 135, 6-[8-(1,3-benzothiazol-2-ylcarbamoyl)-3,4-dihydroisoquinolin-2(1H)-yl]-3-[1-(piperidin-4-ylmethyl)-1H-pyrazol-4-yl]pyridine-2-carboxylic acid], the Ki in assay [1] is 78 nM. Further, the EC50 in assay [2] (Mus musculus) is over 1000 nM.

For the molecule `Cc1c(-c2ccc(N3CCc4cccc(C(=O)Nc5nc6ccccc6s5)c4C3)nc2C(=O)O)cnn1CC1(OCC2COCCO2)CCCCCC1` (stereo not shown) [Example 173, 6-[8-(1,3-benzothiazol-2-ylcarbamoyl)-3,4-dihydroisoquinolin-2(1H)-yl]-3-(1-{[1-(1,4-dioxan-2-ylmethoxy)cycloheptyl]methyl}-5-methyl-1H-pyrazol-4-yl)pyridine-2-carboxylic acid], the Ki in assay [1] is under 0.1 nM. For the same molecule, the EC50 in assay [2] (Mus musculus) is 0.1 nM.

As for `O=C(Nc1nc2ccccc2s1)c1cccc2c1CN(c1ccc(-c3cnn(Cc4cccc(N5CCCC5)n4)c3)c(C(=O)O)n1)CC2` [Example 22, 6-[8-(1,3-benzothiazol-2-ylcarbamoyl)-3,4-dihydroisoquinolin-2(1H)-yl]-3-(1-{[6-(pyrrolidin-1-yl)pyridin-2-yl]methyl}-1H-pyrazol-4-yl)pyridine-2-carboxylic acid], the Ki in assay [1] was 6 nM. In assay [2] (Mus musculus), the EC50 amounted to 214 nM.

Consider `CC(C)(C)Cn1cc(-c2ccc(N3CCc4cccc(C(=O)Nc5nc6ccccc6s5)c4C3)nc2C(=O)O)cn1` [Example 59, 6-[8-(1,3-benzothiazol-2-ylcarbamoyl)-3,4-dihydroisoquinolin-2(1H)-yl]-3-[1-(2,2-dimethylpropyl)-1H-pyrazol-4-yl]pyridine-2-carboxylic acid], for which the inhibitory constant (Ki) in assay [1] came out at 424 nM. In addition, the EC50 in assay [2] was over 1000 nM.

In the case of `COCC1(Cn2ncc(-c3ccc(N4CCc5cccc(C(=O)Nc6nc7ccccc7s6)c5C4)nc3C(=O)O)c2C)CCCCC1` [Example 144, 6-[8-(1,3-benzothiazol-2-ylcarbamoyl)-3,4-dihydroisoquinolin-2(1H)-yl]-3-(1-{[1-(methoxymethyl)cyclohexyl]methyl}-5-methyl-1H-pyrazol-4-yl)pyridine-2-carboxylic acid], the inhibition constant (Ki) in assay [1] was under 0.1 nM. Also, the EC50 in assay [2] (Mus musculus) is 213 nM.

With `O=C(Nc1nc2ccccc2s1)c1cccc2c1CN(c1ccc(-c3cnn(Cc4ccccc4[N+](=O)[O-])c3)c(C(=O)O)n1)CC2` [Example 57, 6-[8-(1,3-benzothiazol-2-ylcarbamoyl)-3,4-dihydroisoquinolin-2(1H)-yl]-3-[1-(2-nitrobenzyl)-1H-pyrazol-4-yl]pyridine-2-carboxylic acid], the Ki in assay [1] was 14 nM. The EC50 in assay [2] (Mus musculus) is 741 nM.

With `Cc1c(-c2ccc(N3CCc4cccc(C(=O)Nc5nc6ccccc6s5)c4C3)nc2C(=O)O)ccnc1Oc1ccccc1` [Example 142, 6-[8-(1,3-benzothiazol-2-ylcarbamoyl)-3,4-dihydroisoquinolin-2(1H)-yl]-3'-methyl-2'-phenoxy-3,4'-bipyridine-2-carboxylic acid], the Ki in assay [1] was determined as 0.5 nM. In addition, the EC50 in assay [2] (Mus musculus) is over 1000 nM.

For `O=C(Nc1nc2ccccc2s1)c1cccc2c1CN(c1ccc(-c3ccn(C(=O)c4ccccc4)c3)c(C(=O)O)n1)CC2` [Example 127, 6-[8-(1,3-benzothiazol-2-ylcarbamoyl)-3,4-dihydroisoquinolin-2(1H)-yl]-3-(1-benzoyl-1H-pyrrol-3-yl)pyridine-2-carboxylic acid], in assay [1], the Ki was 2 nM. Further, in assay [2] (Mus musculus), the EC50 was over 1000 nM.

As for `Cc1c(-c2ccc(N3CCc4cccc(C(=O)Nc5nc6ccccc6s5)c4C3)nc2C(=O)O)cnn1CC1CCC(F)(F)CC1` [Example 73, 6-[8-(1,3-benzothiazol-2-ylcarbamoyl)-3,4-dihydroisoquinolin-2(1H)-yl]-3-{1-[(4,4-difluorocyclohexyl)methyl]-5-methyl-1H-pyrazol-4-yl}pyridine-2-carboxylic acid], the Ki in assay [1] is 0.9 nM. Further, the EC50 in assay [2] (Mus musculus) turned out to be 8 nM.

On to `O=C(Nc1nc2ccccc2s1)c1cccc2c1CN(c1ccc(-c3cnn(Cc4ccccc4-c4ccccc4)c3)c(C(=O)O)n1)CC2` [Example 62, 6-[8-(1,3-benzothiazol-2-ylcarbamoyl)-3,4-dihydroisoquinolin-2(1H)-yl]-3-[1-(biphenyl-2-ylmethyl)-1H-pyrazol-4-yl]pyridine-2-carboxylic acid], for which the Ki in assay [1] was 61 nM. The EC50 in assay [2] (Mus musculus) was over 1000 nM.

Take `COCCC(C1CCCCC1)n1ncc(-c2ccc(N3CCc4cccc(C(=O)Nc5nc6ccccc6s5)c4C3)nc2C(=O)O)c1C` (stereo not shown) [Example 184, 6-[8-(1,3-benzothiazol-2-ylcarbamoyl)-3,4-dihydroisoquinolin-2(1H)-yl]-3-[1-(1-cyclohexyl-3-methoxypropyl)-5-methyl-1H-pyrazol-4-yl]pyridine-2-carboxylic acid]: the Ki in assay [1] is under 0.1 nM. In addition, the EC50 in assay [2] (Mus musculus) is 2 nM.

Regarding `Cc1c(-c2ccc(N3CCc4cccc(C(=O)Nc5nc6ccccc6s5)c4C3)nc2C(=O)O)cc(C(=O)O)n1Cc1ccccc1` [Example 124, 6-[8-(1,3-benzothiazol-2-ylcarbamoyl)-3,4-dihydroisoquinolin-2(1H)-yl]-3-(1-benzyl-5-carboxy-2-methyl-1H-pyrrol-3-yl)pyridine-2-carboxylic acid], the Ki in assay [1] is under 0.1 nM. Also, the EC50 in assay [2] (Mus musculus) is 57 nM.

`Cc1c(-c2ccc(N3CCc4cccc(C(=O)Nc5nc6ccccc6s5)c4C3)nc2C(=O)O)cnn1CC1CCCC1` [Example 63, 6-[8-(1,3-benzothiazol-2-ylcarbamoyl)-3,4-dihydroisoquinolin-2(1H)-yl]-3-[1-(cyclopentylmethyl)-5-methyl-1H-pyrazol-4-yl]pyridine-2-carboxylic acid]: the Ki in assay [1] was 2 nM. In addition, the EC50 in assay [2] (Mus musculus) was determined as 27 nM.

With `O=C(Nc1nc2ccccc2s1)c1cccc2c1CN(c1ccc(-c3cnn(Cc4ccc(Cl)cc4)c3)c(C(=O)O)n1)CC2` [Example 15, 6-[8-(1,3-benzothiazol-2-ylcarbamoyl)-3,4-dihydroisoquinolin-2(1H)-yl]-3-[1-(4-chlorobenzyl)-1H-pyrazol-4-yl]pyridine-2-carboxylic acid], in assay [1], the Ki was found to be 35 nM. The EC50 in assay [2] is over 1000 nM.

Regarding `N#Cc1c(OC2CCCCC2)cccc1-c1ccc(N2CCc3cccc(C(=O)Nc4nc5ccccc5s4)c3C2)nc1C(=O)O` [Example 116, 6-[8-(1,3-benzothiazol-2-ylcarbamoyl)-3,4-dihydroisoquinolin-2(1H)-yl]-3-[2-cyano-3-(cyclohexyloxy)phenyl]pyridine-2-carboxylic acid], in assay [1], the Ki is under 0.1 nM. The EC50 in assay [2] (Mus musculus) stood at 667 nM.

As for `Cc1cc(OCC2CCCCC2)ccc1-c1ccc(N2CCc3cccc(C(=O)Nc4nc5ccccc5s4)c3C2)nc1C(=O)O` [Example 115, 6-[8-(1,3-benzothiazol-2-ylcarbamoyl)-3,4-dihydroisoquinolin-2(1H)-yl]-3-[4-(cyclohexylmethoxy)-2-methylphenyl]pyridine-2-carboxylic acid], the Ki in assay [1] was found to be 5 nM. Further, the EC50 in assay [2] (Mus musculus) turned out to be 916 nM.
